Test results published in ChEMBL document CHEMBL6092167, “Phosphorylation as an Effective Tool to Improve Stability and Reduce Toxicity of Antimicrobial Peptides” (J Med Chem, 2024).
Calls of active or inactive are those of the source. The rule behind the calls is not given here. Positions of bridges follow the written chain, without caps; N, C: chain ends. Non-standard residues stand in square brackets, D forms with d. Residues, ends and D or L forms follow the SMILES beside them. *: point of attachment. X1 = CC[C@H](C)CCCCC(=O)*; dDab = NCC[C@@H](N)C(=O)O; Dab = NCC[C@H](N)C(=O)O

Legend:
[1] = Hemolytic activity in mouse erythrocyte incubated for 1 hr by microplate reader assay; format: toxicity, cell-based
[2] = Cytotoxicity against HEK293T cells incubated for 1 hr by fluorescence based microplate reader assay; format: toxicity, cell-based, HEK-293T; settings: human
[3] = Toxicity in ip dosed BALB/c mouse assessed as respiratory depression at LD50 dose measured within 1 hr by Karber method; format: organism-based; settings: in vivo
[4] = Toxicity in ip dosed BALB/c mouse assessed as rapid death at LD50 dose measured within 1 hr by Karber method; format: organism-based; settings: in vivo
[5] = Toxicity in ip dosed BALB/c mouse assessed as lateral recumbency at LD50 dose measured within 1 hr by Karber method; format: organism-based; settings: in vivo
[6] = Toxicity in ip dosed BALB/c mouse assessed as convulsions at LD50 dose measured within 1 hr by Karber method; format: organism-based; settings: in vivo
[7] = Toxicity in ip dosed BALB/c mouse assessed as lusterless hair at LD50 dose measured within 1 hr by Karber method; format: organism-based; settings: in vivo
[8] = Toxicity in ip dosed BALB/c mouse assessed as sharp breathing at LD50 dose measured within 1 hr by Karber method; format: organism-based; settings: in vivo
[9] = Toxicity in ip dosed BALB/c mouse measured after 14 days; format: organism-based; settings: in vivo, time 14 day
[10] = Toxicity in ip dosed BALB/c mouse assessed as hemorrhage in lung at LD50 dose by H and E staining based assay; format: organism-based; settings: in vivo
[11] = Toxicity in ip dosed BALB/c mouse assessed as inflammatory cell infiltration in lung at LD50 dose by H and E staining based assay; format: organism-based; settings: in vivo
[12] = Toxicity in ip dosed BALB/c mouse assessed as hemorrhage in kidney at LD50 dose by H and E staining based assay; format: organism-based; settings: in vivo
[13] = Toxicity in ip dosed BALB/c mouse assessed as inflammatory cell infiltration in kidney at LD50 dose by H and E staining based assay; format: organism-based; settings: in vivo
[14] = Toxicity in ip dosed BALB/c mouse assessed as alveolar constriction at LD50 dose by H and E staining based assay; format: organism-based; settings: in vivo
[15] = Toxicity in ip dosed BALB/c mouse assessed as pulmonary congestion at LD50 dose by H and E staining based assay; format: organism-based; settings: in vivo
[16] = Toxicity in ip dosed BALB/c mouse assessed as renal cell swelling at LD50 dose by H and E staining based assay; format: organism-based; settings: in vivo
Staphylococcus aureus [17] = assay: Antibacterial activity against methicillin resistant Staphylococcus aureus ATCC 33591 incubated for 18 to 24 hrs by broth microdilution method; format: functional; settings: time 18-24 hrs
Staphylococcus aureus [18] = assay: Antibacterial activity against methicillin resistant Staphylococcus aureus 48 incubated for 18 to 24 hrs by broth microdilution method; format: functional; settings: time 18-24 hrs
Staphylococcus aureus [19] = assay: Antibacterial activity against Staphylococcus aureus 794 incubated for 18 to 24 hrs by broth microdilution method; format: functional; settings: time 18-24 hrs
Escherichia coli [20] = assay: Antibacterial activity against Escherichia coli 780 incubated for 18 to 24 hrs by broth microdilution method; format: functional; settings: time 18-24 hrs
Escherichia coli [21] = assay: Antibacterial activity against Escherichia coli 850 incubated for 18 to 24 hrs by broth microdilution method; format: functional; settings: time 18-24 hrs
Pseudomonas aeruginosa [22] = assay: Antibacterial activity against Pseudomonas aeruginosa 119 incubated for 18 to 24 hrs by broth microdilution method; format: functional; settings: time 18-24 hrs
Staphylococcus aureus [23] = assay: Antibacterial activity against Staphylococcus aureus ATCC 25923 incubated for 18 to 24 hrs by broth microdilution method; format: functional; settings: time 18-24 hrs
Bacillus subtilis = assay: Antibacterial activity against Bacillus subtilis ATCC 23857 incubated for 18 to 24 hrs by broth microdilution method; format: functional; settings: time 18-24 hrs
Escherichia coli [24] = assay: Antibacterial activity against Escherichia coli ATCC 25922 incubated for 18 to 24 hrs by broth microdilution method; format: functional; settings: time 18-24 hrs
Pseudomonas aeruginosa [25] = assay: Antibacterial activity against Pseudomonas aeruginosa ATCC 27853 incubated for 18 to 24 hrs by broth microdilution method; format: functional; settings: time 18-24 hrs
Klebsiella pneumoniae [26] = assay: Antibacterial activity against Klebsiella pneumoniae ATCC 700603 incubated for 18 to 24 hrs by broth microdilution method; format: functional; settings: time 18-24 hrs
Acinetobacter baumannii = assay: Antibacterial activity against Acinetobacter baumannii ATCC 19606 incubated for 18 to 24 hrs by broth microdilution method; format: functional; settings: time 18-24 hrs
Staphylococcus aureus [27] = assay: Antibacterial activity against Staphylococcus aureus ATCC 25923 assessed as fold increase in MIC in presence of Na+; format: functional
Staphylococcus aureus [28] = assay: Bactericidal activity against Staphylococcus aureus ATCC 25923 at 2 times MIC incubated for 24 hrs by time kill assay; format: functional
Klebsiella pneumoniae [29] = assay: Synergistic antibacterial activity against Klebsiella pneumoniae ATCC 700603 assessed as fractional inhibitory concentration index at 1/4 to 4 times MIC incubated for 18 to 24 hrs in presence of ciprofloxacin by checkerboard assay; format: functional; settings: time 18-24 hrs
Klebsiella pneumoniae [30] = assay: Additive antibacterial activity against Klebsiella pneumoniae ATCC 700603 assessed as fractional inhibitory concentration index at 1/4 to 4 times MIC incubated for 18 to 24 hrs in presence of kanamycin by checkerboard assay; format: functional; settings: time 18-24 hrs
Klebsiella pneumoniae [31] = assay: Drug resistance development in Klebsiella pneumoniae ATCC 700603 assessed as fold increase in MIC measured after 20 passage; format: functional
Klebsiella pneumoniae [32] = assay: Antibacterial activity against Klebsiella pneumoniae 700603 preincubated for 6 hrs in presence of trypsin followed by heat inactivation for 15 mins prior to bacterial addition and measured after 18 to 24 hrs by microplate reader assay; format: functional, organism-based; settings: time 18-24 hrs
Staphylococcus aureus [33] = assay: Antibacterial activity against Staphylococcus aureus ATCC 25923 preincubated for 6 hrs in presence of trypsin followed by heat inactivation for 15 mins prior to bacterial addition and measured after 18 to 24 hrs by microplate reader assay; format: functional, organism-based; settings: time 18-24 hrs
Klebsiella pneumoniae [34] = assay: Antibacterial activity against Klebsiella pneumoniae 700603 preincubated for 6 hrs in presence of chymotrypsin followed by heat inactivation for 15 mins prior to bacterial addition and measured after 18 to 24 hrs by microplate reader assay; format: functional, organism-based; settings: time 18-24 hrs
Staphylococcus aureus [35] = assay: Antibacterial activity against Staphylococcus aureus ATCC 25923 preincubated for 6 hrs in presence of chymotrypsin followed by heat inactivation for 15 mins prior to bacterial addition and measured after 18 to 24 hrs by microplate reader assay; format: functional, organism-based; settings: time 18-24 hrs
Pseudomonas aeruginosa [36] = assay: Antibiofilm activity against Pseudomonas aeruginosa ATCC 27853 assessed as eradication of preformed biofilms at 4 times MIC incubated for 24 hrs by crystal violet staining based assay; format: functional, organism-based
Escherichia coli [37] = assay: Antibiofilm activity against Escherichia coli ATCC 25922 assessed as eradication of preformed biofilms at 4 times MIC incubated for 24 hrs by crystal violet staining based assay; format: functional, organism-based
Klebsiella pneumoniae [38] = assay: Antibiofilm activity against Klebsiella pneumoniae ATCC 700603 assessed as eradication of preformed biofilms at 4 times MIC incubated for 24 hrs by crystal violet staining based assay; format: functional, organism-based
Klebsiella pneumoniae [39] = assay: Antibacterial activity against Klebsiella pneumoniae ATCC 700603 infected in BALB/c mouse lung infection model assessed as reduction in hepatic hemorrhage at 2.46 mg/kg, ip administered twice daily for 3 days and measured after 7 days; format: functional, organism-based; settings: time 10.0 day
Klebsiella pneumoniae [40] = assay: Antibacterial activity against Klebsiella pneumoniae ATCC 700603 infected in BALB/c mouse lung infection model assessed as reduction in alveolar contraction at 2.46 mg/kg, ip administered twice daily for 3 days and measured after 7 days; format: functional, organism-based; settings: time 10.0 day
Klebsiella pneumoniae [41] = assay: Antibacterial activity against Klebsiella pneumoniae ATCC 700603 infected in BALB/c mouse lung infection model assessed as reduction in pulmonary tissue bleeding at 2.46 mg/kg, ip administered twice daily for 3 days and measured after 7 days; format: functional, organism-based; settings: time 10.0 day

In the case of `CC(C)CCCCC(=O)N[C@@H](CCN)C(=O)N[C@H](C(=O)N[C@@H](CCN)C(=O)N[C@H]1CCNC(=O)[C@H]([C@@H](C)O)NC(=O)[C@H](CCN)NC(=O)[C@H](CCN)NC(=O)[C@H](CC(C)C)NC(=O)[C@@H](Cc2ccccc2)NC(=O)[C@H](CCN)NC1=O)[C@@H](C)O.CC[C@H](C)CCCCC(=O)N[C@@H](CCN)C(=O)N[C@H](C(=O)N[C@@H](CCN)C(=O)N[C@H]1CCNC(=O)[C@H]([C@@H](C)O)NC(=O)[C@H](CCN)NC(=O)[C@H](CCN)NC(=O)[C@H](CC(C)C)NC(=O)[C@@H](Cc2ccccc2)NC(=O)[C@H](CCN)NC1=O)[C@@H](C)O` (X1-[Dab]T[Dab][Dab][Dab][dF]L[Dab][Dab]T; lactam 4-C) [listing 1 of 2 here], the MHC [1] was > 256 µM, the CC50 at 1 h [2] was 128 µM and the Activity [3] was “Toxic”. The Activity [4] was “Toxic”, the Activity [5] was “Toxic” and the Activity [6] was “Toxic”. For the same compound, the Activity [7] was “Toxic”, the Activity [8] was “Toxic” and the LD50 at 336 h [9] was 25.7 mg/kg. The Activity [10] was “Toxic”, the Activity [11] was “Toxic” and the Activity [12] was “Toxic”. For the same compound, the Activity [13] was “Toxic”, the Activity [14] was “Toxic” and the Activity [15] was “Toxic”. The Activity [16] was “Toxic”.

`CC(C)CCCCC(=O)N[C@@H](CCN)C(=O)N[C@H](C(=O)N[C@@H](CCN)C(=O)N[C@H]1CCNC(=O)[C@H]([C@@H](C)O)NC(=O)[C@H](CCN)NC(=O)[C@H](CCN)NC(=O)[C@H](CC(C)C)NC(=O)[C@@H](Cc2ccccc2)NC(=O)[C@H](CCN)NC1=O)[C@@H](C)O.CC[C@H](C)CCCCC(=O)N[C@@H](CCN)C(=O)N[C@H](C(=O)N[C@@H](CCN)C(=O)N[C@H]1CCNC(=O)[C@H]([C@@H](C)O)NC(=O)[C@H](CCN)NC(=O)[C@H](CCN)NC(=O)[C@H](CC(C)C)NC(=O)[C@@H](Cc2ccccc2)NC(=O)[C@H](CCN)NC1=O)[C@@H](C)O` (X1-[Dab]T[Dab][Dab][Dab][dF]L[Dab][Dab]T; lactam 4-C) [listing 2 of 2 here] showed an MIC (Staphylococcus aureus [17]) of 16 µM, an MIC (Staphylococcus aureus [18]) of 16 µM and an MIC (Staphylococcus aureus [19]) of 8 µM. For the same compound, the MIC (Escherichia coli [20]) was 2 µM, the MIC (Escherichia coli [21]) was 2 µM and the MIC (Pseudomonas aeruginosa [22]) was 2 µM. For the same compound, the MIC (Staphylococcus aureus [23]) was 16 µM, the MIC (Bacillus subtilis) was 4 µM and the MIC (Escherichia coli [24]) was 4 µM. It also gave an MIC (Pseudomonas aeruginosa [25]) of 2 µM, an MIC (Klebsiella pneumoniae [26]) of 4 µM and an MIC (Acinetobacter baumannii) of 2 µM. For the same compound, the “fold change (FC)” value (Staphylococcus aureus [27]) was 4, the Activity (Staphylococcus aureus [28]) was 100% and the “fractional inhibitory concentration index (FICI)” value (Klebsiella pneumoniae [29]) was 0.313. The “fractional inhibitory concentration index (FICI)” value (Klebsiella pneumoniae [30]) was 0.313 and the “fold change (FC)” value (Klebsiella pneumoniae [31]) was 64.

In the case of `CC(C)CCCCC(=O)N[C@@H](CCN)C(=O)N[C@H](C(=O)N[C@@H](CCN)C(=O)N[C@H]1CCNC(=O)[C@H]([C@@H](C)O)NC(=O)[C@H](CCN)NC(=O)[C@H](CCN)NC(=O)[C@H](CC(C)C)NC(=O)[C@@H](Cc2ccccc2)NC(=O)[C@@H](CCN)NC1=O)[C@@H](C)O.CC[C@H](C)CCCCC(=O)N[C@@H](CCN)C(=O)N[C@H](C(=O)N[C@@H](CCN)C(=O)N[C@H]1CCNC(=O)[C@H]([C@@H](C)O)NC(=O)[C@H](CCN)NC(=O)[C@H](CCN)NC(=O)[C@H](CC(C)C)NC(=O)[C@@H](Cc2ccccc2)NC(=O)[C@@H](CCN)NC1=O)[C@@H](C)O` (X1-[Dab]T[Dab][Dab][dDab][dF]L[Dab][Dab]T; lactam 4-C), the Activity (Klebsiella pneumoniae [32]) was “Active; High Enzymatic Stability”, the Activity (Staphylococcus aureus [33]) was “Active; High Enzymatic Stability” and the Activity (Klebsiella pneumoniae [34]) was “Active; High Enzymatic Stability”. For the same compound, the Activity (Staphylococcus aureus [35]) was “Active; High Enzymatic Stability”, the Activity (Pseudomonas aeruginosa [36]) was “Active” and the Activity (Escherichia coli [37]) was “Active”. The Activity (Klebsiella pneumoniae [38]) was “Active”, the Activity (Klebsiella pneumoniae [39]) was “inactive” and the Activity (Klebsiella pneumoniae [40]) was “inactive”. For the same compound, the Activity (Klebsiella pneumoniae [41]) was “inactive”.
